# Data reported in patent publication US20110034418A1, “PHARMACEUTICAL COMPOSITION WITH BISPHOSPHONATE” (priority 2008, published 2011).
# Molecular target: T1, Human farnesyl pyrophosphate synthase (FPPS, Swissprot ID: P14324) (Homo sapiens, UniProt P14324)
# T1 construct: made in house
# T1 sequence (P14324 67-419 limits assumed): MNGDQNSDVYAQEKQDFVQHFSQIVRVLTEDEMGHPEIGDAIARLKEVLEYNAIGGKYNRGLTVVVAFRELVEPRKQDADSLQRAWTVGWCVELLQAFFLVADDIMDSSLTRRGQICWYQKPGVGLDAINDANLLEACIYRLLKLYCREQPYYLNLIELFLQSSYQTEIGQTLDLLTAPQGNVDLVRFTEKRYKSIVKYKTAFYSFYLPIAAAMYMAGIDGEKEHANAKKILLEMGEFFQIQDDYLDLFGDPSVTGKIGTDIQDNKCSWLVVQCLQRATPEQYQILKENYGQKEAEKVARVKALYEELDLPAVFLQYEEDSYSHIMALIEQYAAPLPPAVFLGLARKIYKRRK
# Assay: label-free LC/MS/MS assay for farnesyl pyrophosphate synthase (FPPS), cell-free in vitro
# Format: biochemical
# Settings: 5 min pre-incubation, GPP/IPP substrates, FPP quantified by LC/MS/MS
# Protocol: For example, in a cell-free in vitro assay the superiority of compounds of the formula I over compounds already known can be shown. Briefly, the reaction proceeds in the presence of enzyme and an inhibitor of the formula I, and the reaction product (farneysyl pyrophosphate) is quantified by LC/MS/MS.
# In detail, the inhibitor and enzyme are pre-incubated before adding the substrates
# The assay is a label-free assay for farnesyl pyrophosphate synthase (FPPS) based on LC/MS/MS. This method quantifies in-vitro untagged farnesyl pyrophosphate (FPP) and is suitable for high throughput screening (HTS) to find inhibitors of FPPS and for the determinations of IC50 values of candidate compounds. The analysis time is 2.0 minutes with a total cycle time of 2.5 minutes. The analysis can be formatted for 384-well plates resulting in an analysis time of 16 hours per plate.
# Pentanol, methanol, and isopropyl alcohol are HPLC grade and obtained from Fisher Scientific. DMIPA is from Sigma-Aldrich. Water is from an in-house Milli-Q system. […]
# The Multiple Reaction Monitoring (MRM) transitions monitored are 381−>79− for FPP and 397−>159− for FSPP at a collision energy of 22 eV and a collision cell pressure of 2.1×10^−3 mbar of Ar. […]
# The total cycle time per sample is 2.5 minutes. Since the analysis is formatted for 384-well plates, a plate is analyzed in 16 hours. […]
smiles,measurement,value
"CCc1cncn1CC(O)(P(=O)(O)O)P(=O)(O)O [Reference-Example 2, [2-(5-Ethyl-imidazol-1-yl)-1-hydroxy-1-phosphono-ethyl]-phosphonic acid]",IC50,2.4 to 3.1 nM
